Legend:
[1] = system: C. albicans (strain SC-5134); experiment: FITC-labeled Annexin V staining of protoplasts (phosphatidylserine externalization); type: cell-based, Candida albicans; details: 1.0 μM Pc 4-PDT, 2.0 J/cm^2, within 4 to 5 hours of PDT
Method: Cells were then incubated for 4 hr before staining with FITC-labeled Annexin V. FIG. 4(a) provides confocal images of FITC-labeling of cells that had been treated with H2O2 or Pc 4-PDT. Scale bar, 20 μm. FIG. 4(b) provides a bar graph showing the results. For each experiment over 50-100 protoplasts cells were counted per sample. […] Cells were counted by eye using a Zeiss AxiovertTM S100 inverted epifluorescence microscope. Values represent the mean±S.E. from at least three independent experiments. […] Apoptosis Analyses: (A) FITC-labeled Annexin V staining-To assess the externalization of phosphatidylserine, protoplasts of C. albicans were stained with FITC-labeled Annexin V using the Annexin V-FLUOS staining kit (Roche, Germany) with minor modifications. Madeo et al., J Cell Biol 139:729-734 (1997); Park et al., Biochem Biophys Res Commun 394:170-172 (2010). Briefly, control and treated cells were washed three times with 1× PBS before incubating at 37° C. for 30 min in a protoplasting solution (50 mM KH2PO4, 5 mM EDTA and 50 mM DTT). Then cells were digested at 37° C. for 45 min in an enzyme solution (50 mM K2HPO4, 40 mM 2-mercaptoethanol, 3 μg/mL Chitinase, 1.8 μg/mL […], 0.15 mg/mL Zymolyase and 2.4 M sorbitol). 1× PBS was added to each sample and incubated for 30 min at room temperature in all experiments. Protoplasts were then incubated with 100 μL of Annexin V-FLUOS labeling solution for 15 min at 25° C. FITC-labeled Annexin V fluorescence was detected by both widefield (Leica DMI6000B microscope; Leica Microsystems, Inc., Bannockburn, Ill., USA) and confocal fluorescence microscopy.

[2] = mice, delivered systemically; cited from earlier work
[3] = system: C. albicans (strain SC-5134); experiment: Chromatin condensation by confocal microscopy; type: cell-based, Candida albicans; details: highest dose of Pc 4-PDT or peroxide, 24 hr after treatment
Method: Confocal Microscopy: To investigate the uptake and localization of Pc 4, cells in standard growth medium plus 10% Fetal Bovine Serum (FBS) were loaded with 0.2 μM Pc 4 and incubated for 16 to 18 hr. Thirty minutes prior to imaging Pc 4, 50 nM MitoTracker Red (Invitrogen, Carlsbad, Calif., USA) or 50 μg/mL AlexaFluor 488-conjugated Concanavalin (Con) A (Invitrogen, Carlsbad, Calif., USA) and/or 10 μg/mL Hoechst 33342 (Invitrogen, Carlsbad, Calif., USA) was loaded onto cells. Five to 10 μL of stained cells were placed on a slide with a glass coverslip and all images acquired using an UltraVIEW VoX spinning disk confocal system (PerkinElmer, Waltham, Mass., USA), which was mounted on a Leica DMI6000B microscope (Leica Microsystems, Inc., Bannockburn, Ill., USA) equipped with a HCX PL APO 100×/1.4 oil immersion objective. Confocal images of Pc 4 fluorescence, MitoTracker Red, ConA (or FITC-labeled Annexin V) and Hoechst 33342 were collected using solid-state diode lasers, with 640-nm, 561-nm, 488-nm and 405-nm excitation light, respectively, and with appropriate emission filters.

[4] = light dose 50 J/cm^2; cited from earlier work
[5] = system: C. albicans (strain SC-5134); experiment: Colony forming unit (CFU) phototoxicity assay; type: cell-based, Candida albicans
Method: Colonies Formation Assay: Briefly, the 1 ml of each treatment condition was diluted into 1:10,000, 1:50,000 or 1:100,000 and plated 100 μL onto Sabouraud dextrose agar plate (Becton Dickinson, New Jersey, USA). All plates were incubated at 37° C. and colonies were imaged and counted the following day for each plate/condition.
Pc 4-Photodynamic Treatment Conditions: The phthalocyanine photosensitizer Pc 4 was kindly provided by Dr. Malcolm E. Kenney (Department of Chemistry, Case Western Reserve University, Cleveland, Ohio, USA). Stock solutions (0.5 mM) of Pc 4 were prepared in N′,N′-dimethylformamide (DMF, ThermoFisher, Waltham, Mass., USA) and stored at 4° C. in the dark. C. albicans cultures were incubated with Pc 4 concentrations ranging from 0.1 to 1.0 μM in 1× PBS containing 10% FBS for at least 1 hr at 37° C. in the dark and subsequently irradiated with red light using a light-emitting diode array (EFOS, Mississauga, Ontario, Canada) at a fluence ranging from 1.0 to 2.0 J/cm^2 (1.0 mW/cm^2, λmax ˜670-675 nm) at room temperature.
Colony forming unit (CFU) phototoxicity assay: CFU assay was done as described by Chandra et al. with minor modifications. […] After 24 hours, colonies were counted by eye, and all the percentage of surviving cells from the Pc 4-PDT cultures was normalized against that of cultures exposed to Pc 4 or light alone. […]

[6] = topical application; cited from earlier work
[7] = type: in vitro ADME, human
Excerpt: Because drug penetration into and through the nail plate is always a challenge in the treatment of onychomycosis, the nail absorption of topically applied Pc 4 was also investigated. […] Considering that these samples were healthy nails, it appears that diseased/dystrophic nails whose barrier functions have been compromised may even have better Pc 4 absorption. Nonetheless, in the clinical protocol, the inventors specified that Pc 4 will be applied not only on the nail plate but also on the exposed subungual tissue and periungual area.

In the case of `CN(C)CCC[Si](C)(C)O[Si]1(O)n2c3c4ccccc4c2N=C2N=C(N=c4c5ccccc5c(n41)=NC1=NC(=N3)c3ccccc31)c1ccccc12` (centres unmarked) [Pc 4, HOSiPcOSi(CH3)2(CH2)3N(CH3)2], the “Annexin V positive cells” value [1] is listed as 20%, the “clearance compared with Photofrin” value [2] is listed as “much more rapidly cleared than Photofrin” and the chromatin condensation [3] is listed as “detected”. For the same compound, the tolerability [4] was “well-tolerated”, the “cell killing / reduction of cell survival (CFU)” value ([5]; 1.0 μM Pc 4, light at 2.0 J/cm^2 (670-675 nm)) was 4 logs and the “effect of photosensitizer alone on cell proliferation and cell death” value ([5]; highest dose of Pc 4, no light, compared to untreated cells) was “neither the highest dose of photosensitizer alone nor light alone affected cell proliferation and cell death”. For the same compound, the “penetration through stratum corneum and epidermis” value [6] was “penetrate through the stratum corneum and epidermis” and the “Pc 4 fluorescence within the nail plate” value [7] was “significant amount of Pc 4 fluorescence can be detected within the nail plate”.

Reference: US20120265121A1, “PHTHALOCYANINE-BASED ANTIFUNGAL AGENTS” (CASE WESTERN RESERVE UNIVERSITY, priority 2011, published 2012)
